We go through 18 substances from patent US7449545B2, “Antimicrobial bolisin peptides” (IPF Pharmaceuticals GmbH, priority 2001, dated 2008).

Like-named read-outs stand apart in the source and are kept apart here. Ends that are not written are not given here.

Common to all, as to format: cell-based
In test [1] the test system is Pseudomonas aeruginosa ATCC 9027. The conditions noted are these: complete growth inhibition not achieved. An excerpt:
(§1) The bolisin analogues of the present invention were examined for their suitability as antibiotic therapeutical agents by means of various biological tests. Thus, the chemically synthesized peptides were examined for their antimicrobial effectiveness against three Gram-positive and three Gram-negative bacterial strains as well as against a yeast.
(§2) The following microorganisms were used: • Gram-positive: Staphylococcus aureus ATCC 25923 • Enterococcus faecalis ATCC 51299 (vancomycin-resistant) • Streptococcus pneumoniae DSM 11865 (penicillin-resistant) • Gram-negative: Escherichia coli ATCC 25922 • Pseudomonas aeruginosa ATCC 9027 • Klebsiella pneumoniae ATCC 10031 • Yeast: Candida albicans ATCC 10231
(§3) The antibiotic activity of bolisin analogues was examined by determining the minimum inhibition concentration. The minimum inhibition concentration of an analogue designates the lowest peptide concentration which is required to inhibit the growth of microorganisms completely after an incubation time of 18±2 h. This method allows to obtain a quantitative result about the antimicrobial potency of the peptides. These examinations were performed by analogy with the recommendations (M7-A3) edited by the NCCLS (National Committee for Clinical Laboratory Standards) by applying a dilution test in a liquid medium using chemically synthesized peptides (peptide sequences according to claims 1 to 3). Mueller Hinton Broth was used as the test medium according to the NCCLS recommendations unless indicated otherwise. […] The minimum inhibition concentrations are stated in [μg/ml].
(§4) A complete growth inhibition could not be achieved in this case. For determining the minimum inhibition concentration, the following microorganisms were used: • 1. Staphylococcus aureus ATCC 25923 • 2. Enterococcus faecalis ATCC 51299 (vancomycin-resistant) • 3. Streptococcus pneumoniae DSM 11865 (penicillin-resistant) • 4. Escherichia coli ATCC 25922 • 5. Pseudomonas aeruginosa ATCC 9027 • 6. Klebsiella pneumoniae ATCC 10031 • 7. Candida albicans ATCC 10231

Test [2] has as its system Escherichia coli ATCC 25922. Particulars: ATCC 25922, 2 h.
From the text: as §1, §2
as §3, with “The minimum inhibition concentration of an analogue designates the lowest peptide concentration which is required to inhibit the growth of microorganisms completely after an incubation time of 18±2 h.” left out
as §4

Test [3] has as its system Klebsiella pneumoniae ATCC 10031. The conditions noted are these: ATCC 10031, 2 h.
From the text: as §1, §2
as §3, with “The minimum inhibition concentration of an analogue designates the lowest peptide concentration which is required to inhibit the growth of microorganisms completely after an incubation time of 18±2 h.” left out
as §4

For test [4], the system named is Streptococcus pneumoniae DSM 11865 (penicillin-resistant). Particulars: DSM 11865, 2 h.
From the text: as §1, §2
as §3, with “The minimum inhibition concentration of an analogue designates the lowest peptide concentration which is required to inhibit the growth of microorganisms completely after an incubation time of 18±2 h.” left out
as §4

The test system of test [5] is Staphylococcus aureus ATCC 25923. The conditions noted are these: ATCC 25923, 2 h.
From the text: as §1, §2
as §3, with “The minimum inhibition concentration of an analogue designates the lowest peptide concentration which is required to inhibit the growth of microorganisms completely after an incubation time of 18±2 h.” left out
as §4

For test [6], the system named is Enterococcus faecalis ATCC 51299 (vancomycin-resistant). The conditions noted are these: ATCC 51299, 2 h.
From the text: as §1, §2
as §3, with “The minimum inhibition concentration of an analogue designates the lowest peptide concentration which is required to inhibit the growth of microorganisms completely after an incubation time of 18±2 h.” left out
as §4

The mark [7] stands for this setting: half-concentrated Mueller Hinton Broth.

“YIVWKIRSADKRSKALK-OH [BOL-25, YIVWKIRSADKRSKALK]”: in test [1] (setting [7]), the “peptide concentration giving 75% inhibition of growth (value in parentheses)” value was “(150) μg/ml”. Also, the minimum inhibition concentration was 150 µg/mL in test [2]; 200 µg/mL in test [3]; >300 µg/mL in test [4]; 150 µg/mL in test [5]; >300 µg/mL in test [6].

Take “YIVYKIRSADKRRKALK-OH [BOL-7, YIVYKIRSADKRRKALK]”: the “peptide concentration giving 75% inhibition of growth (value in parentheses)” value in test [1] (setting [7]) is “(75) μg/ml”. Moreover, the minimum inhibition concentration in test [2] was 150 µg/mL; in test [3], 300 µg/mL; in test [4] it was >300 µg/mL; in test [5], 75 µg/mL; in test [6], >300 µg/mL.

As for “YIVYKIRFAFKRRKAL [BOL-92, YIVYKIRFAFKRRKAL]”, the “peptide concentration giving 75% inhibition of growth (value in parentheses)” value in test [1] (Mueller Hinton Broth) is on record as “(37.5) μg/ml”. In addition, the minimum inhibition concentration in test [2] is 18.75 µg/mL; in test [3], 12.5 µg/mL; in test [4], 25 µg/mL; in test [5], 18.75 µg/mL; in test [6], 18.75 µg/mL.

Regarding “YIVYKIRWTWKRSKAL [BOL-97, YIVYKIRWTWKRSKAL]”, the “peptide concentration giving 75% inhibition of growth (value in parentheses)” value in test [1] (Mueller Hinton Broth) is “(37.5) μg/ml”. In addition, the minimum inhibition concentration in test [2] amounted to 18.75 µg/mL; in test [3], 18.75 µg/mL; in test [4], 18.75 µg/mL; in test [5], 12.5 µg/mL; in test [6], 18.75 µg/mL.

Turning to “YIVYKRRSADKRRKALK-OH [BOL-12, YIVYKRRSADKRRKALK]”, in test [1] (setting [7]), the “peptide concentration giving 75% inhibition of growth (value in parentheses)” value is given as “(300) μg/ml”. Also, the minimum inhibition concentration in test [2] is 18.75 µg/mL; in test [3] it was 200 µg/mL; in test [4], >300 µg/mL; in test [5], 18.75 µg/mL; in test [6] it was >300 µg/mL.

As for “YIVYKIRSAWKRSKALK-OH [BOL-29, YIVYKIRSAWKRSKALK]”, the “peptide concentration giving 75% inhibition of growth (value in parentheses)” value in test [1] (setting [7]) is listed as “(18.75) μg/ml”. For the same substance, the minimum inhibition concentration worked out at 9.375 µg/mL in test [2]; 50 µg/mL in test [3]; 150 µg/mL in test [4]; 9.375 µg/mL in test [5]; 75 µg/mL in test [6].

For the substance “YIVYKIRWADKRSKALK-OH [BOL-27, YIVYKIRWADKRSKALK]”, in test [1] (setting [7]), the “peptide concentration giving 75% inhibition of growth (value in parentheses)” value is listed as “(150) μg/ml”. For the same substance, the minimum inhibition concentration in test [2] amounted to 75 µg/mL; in test [3], 150 µg/mL; in test [4], 300 µg/mL; in test [5], 75 µg/mL; in test [6] it was 300 µg/mL.

As for “YIVYKRRSARKRSKALK-OH [BOL-11, YIVYKRRSARKRSKALK]”, the “peptide concentration giving 75% inhibition of growth (value in parentheses)” value in test [1] (setting [7]) is on record as “(150) μg/ml”. The minimum inhibition concentration in test [2] was 37.5 µg/mL; in test [3] it was 150 µg/mL; in test [4], >300 µg/mL; in test [5], 37.5 µg/mL; in test [6], >300 µg/mL.

For “YIVYKIRWAWKRSKAL [BOL-93, YIVYKIRWAWKRSKAL]”, the “peptide concentration giving 75% inhibition of growth (value in parentheses)” value in test [1] (Mueller Hinton Broth) is “(37.5) μg/ml”. Also, the minimum inhibition concentration was 25 µg/mL in test [2]; 25 µg/mL in test [3]; 25 µg/mL in test [4]; 25 µg/mL in test [5]; 37.5 µg/mL in test [6].

Take “YIVYKIRFAFKRSKAL [BOL-91, YIVYKIRFAFKRSKAL]”: the “peptide concentration giving 75% inhibition of growth (value in parentheses)” value in test [1] (Mueller Hinton Broth) is “(150) μg/ml”. The minimum inhibition concentration in test [2] came to 25 µg/mL; in test [3] it was 18.75 µg/mL; in test [4], 37.5 µg/mL; in test [5] it was 25 µg/mL; in test [6] it was 37.5 µg/mL.

Turning to “YIVYKIRSAPKRSKALK-OH [BOL-21, YIVYKIRSAPKRSKALK]”, the “peptide concentration giving 75% inhibition of growth (value in parentheses)” value in test [1] (setting [7]) is recorded as “(150) μg/ml”. For the same substance, the minimum inhibition concentration in test [2] is 150 µg/mL; in test [3], 200 µg/mL; in test [4], >300 µg/mL; in test [5], 75 µg/mL; in test [6], >300 µg/mL.

In the case of “YIVYKIRSARKRSKALK-OH [BOL-6, YIVYKIRSARKRSKALK]”, the “peptide concentration giving 75% inhibition of growth (value in parentheses)” value in test [1] (setting [7]) is given as “(9.375) μg/ml”. The minimum inhibition concentration in test [2] is 37.5 µg/mL; in test [3], 37.5 µg/mL; in test [4], 150 µg/mL; in test [5] it was 37.5 µg/mL; in test [6] it was 200 µg/mL.

As for “KLAKRRKWAWRIKYVIY [BOL-103, KLAKRRKWAWRIKYVIY]”, the “peptide concentration giving 75% inhibition of growth (value in parentheses)” value in test [1] (Mueller Hinton Broth) is on record as “(9.4) μg/ml”. For the same substance, the minimum inhibition concentration in test [2] came to 18.75 µg/mL; in test [3], 18.75 µg/mL; in test [4], 37.5 µg/mL; in test [5], 18.75 µg/mL; in test [6], 37.5 µg/mL.

For “YIRYKRRSADKRRKALK-OH [BOL-16, YIRYKRRSADKRRKALK]”, the “peptide concentration giving 75% inhibition of growth (value in parentheses)” value in test [1] (setting [7]) was “(300) μg/ml”. Besides, the minimum inhibition concentration in test [2] is 75 µg/mL; in test [3], 150 µg/mL; in test [4] it was >300 µg/mL; in test [5], 100 µg/mL; in test [6], >300 µg/mL.

Regarding “YIVYKIRSARKRRKALK-OH [BOL-13, YIVYKIRSARKRRKALK]”, in test [1] (setting [7]), the “peptide concentration giving 75% inhibition of growth (value in parentheses)” value is “(9.375) μg/ml”. The minimum inhibition concentration worked out at 18.75 µg/mL in test [2]; 18.75 µg/mL in test [3]; 150 µg/mL in test [4]; 18.75 µg/mL in test [5]; 75 µg/mL in test [6].

In the case of “YIVYKRRSARKRRKALK-OH [BOL-15, YIVYKRRSARKRRKALK]”, the “peptide concentration giving 75% inhibition of growth (value in parentheses)” value in test [1] (setting [7]) is listed as “(150) μg/ml”. Also, the minimum inhibition concentration in test [2] was 18.75 µg/mL; in test [3] it was 75 µg/mL; in test [4], >300 µg/mL; in test [5] it was 18.75 µg/mL; in test [6] it was >300 µg/mL.

Consider “YIRYKIRSARKRRKALK-OH [BOL-14, YIRYKIRSARKRRKALK]”, for which the “peptide concentration giving 75% inhibition of growth (value in parentheses)” value in test [1] (setting [7]) was “(150) μg/ml”. Further, the minimum inhibition concentration in test [2] was 37.5 µg/mL; in test [3] it was 75 µg/mL; in test [4] it was >300 µg/mL; in test [5] it was 50 µg/mL; in test [6], >300 µg/mL.

For “YIVYKIRSADKRWKALK-OH [BOL-30, YIVYKIRSADKRWKALK]”, the “peptide concentration giving 75% inhibition of growth (value in parentheses)” value in test [1] (setting [7]) is given as “(300) μg/ml”. Also, the minimum inhibition concentration is 150 µg/mL in test [2]; 300 µg/mL in test [3]; >300 µg/mL in test [4]; 100 µg/mL in test [5]; >300 µg/mL in test [6].
